Laboratory results taken from US20230404963A1, “COMBINATIONS OF METAP2 INHIBITORS AND CD4/6 INHIBITORS FOR THE TREATMENT OF CANCER” (SynDevRx, Inc., priority 2020, published 2023).

Tested on: MCF-7 tumors
Experiment: Tumor Growth Inhibition in mice bearing MCF-7 tumors treated with Compound 1 and/or ribociclib
Assay type: in vivo
Experimental: In the following experiment, mice bearing MCF-7 tumors were treated with either a vehicle control, Compound 1 alone, ribociclib alone, or with a combination of Compound 1 and ribociclib. MCF-7 were cultured in DMEM supplemented with 10% FBS. On the day of implantation, cells were washed 1× with phosphate-buffered saline (PBS). Following washing, cells were pelleted (5 min @ 1000 rpm, RT) and then counted with a hemocytometer. A cell concentration of 5×10^6 per mouse was re-suspended in an appropriate amount of PBS and 1:1 Matrigel. The suspension was kept on ice until implantation. Forty-eight hours prior to cell implantation, a 17-β estradiol pellet (0.36 mg 60-day slow release pellet) was be implanted subcutaneously between the scapulae of each Female Nu/j mouse. […] Once anesthetized, the mice were positioned ventral side up and anesthesia maintained through a fitted nose cone. The MCF-7 cell suspension was injected into the mammary fat pad at a volume of 100 μl containing 5×10^6 cells per mouse. Beginning 5 days post cell implantation, tumors were measured two times weekly (length×width) using a wireless digital calipers in conjunction with UWAVE-R to record measurements. […] The first day of treatment was designated “Day 1”. The mice were dosed either subcutaneously (SC), orally (PO), or by both dose routes, as put forth in the experimental designed summarized in Table 3. Doses were calculated by individual body weights. [table] The first group of mice (Group #1) were administered the vehicle control by oral administration once a day (QD). […] The fifth group of mice (Group #5) were administered Ribociclib at a dose of 35 mg/kg by oral administration once a day (QD). The sixth group of mice (Group #6) were administered Ribociclib at a dose of 70 mg/kg by oral administration once a day (QD). Twice weekly body weights and tumor measurements were recorded for the duration of the study. […] Upon euthanasia, a maximum volume terminal blood sample was obtained via cardiac puncture and split 200 μL in a K2EDTA MiniCollect tube for plasma separation and 420 μL in to a MiniCollect serum separator tube for half the mice for Clinical Chemistry analysis. For the other half of the mice, >200 μL of blood was collected in to K2EDTA MiniCollect tubes (LTT) for CBC analysis. The MiniCollect blood tubes for both plasma and serum were centrifuged at 8000 rpm for 5 minutes. The plasma was retained for biomarker analysis at −80° C., the serum and whole blood (LTT) were further analyzed. Additionally, tumor from the mice were dissected, weighed, and split into two pieces. Half of the tumor was placed into buffered formalin and stored at room temperature. Half of the tumor was snap-frozen in liquid N2, and stored at −80° C. […]

With `CN(C)C(=O)c1cc2cnc(Nc3ccc(N4CCNCC4)cn3)nc2n1C1CCCC1` [Ribociclib, ribociclib] the TGI % (day 14, Group 5: Ribociclib 35 mg/kg PO QD) was 57%, the TGI % (day 14, Group 6: Ribociclib 70 mg/kg PO QD) was 70% and the TGI % (day 18, Group 5: Ribociclib 35 mg/kg PO QD (10 times the dose on day 16)) was 60%. The TGI % (day 18, Group 6: Ribociclib 70 mg/kg PO QD (10 times the dose on day 16)) was 70%.
